From patent US4822773A (Merck & Co., Inc., priority 1987, dated 1989) come the findings set out here.

Structures are written as SMILES.

Data set [1] is described as follows: in vivo. To be noted: rat. Here is the method: Experiments were performed with rats wherein each animal received an aqueous microenema applied to the rectal cavity. The microenemas contained target drug entity (amount shown in table) in the presence or absence of 5 mg lauroylcholine chloride or palmitoylcholine iodide. Blood levels were monitored and the amount of drug absoreed calculated against intravenous administration and expressed as percent bioavailability.
The amount of drug absorbed is expressed as percent bioavailability versus intravenous administration
Blood was collected and sodium cefoxitin measured. Absorption of sodium cefoxitin is expressed as percent bioavailability versus intravenous administration.

Data set [2] can be described thus: Small intestinal (duodenal) absorption from aqueous solution in rats, percent bioavailability versus intravenous administration. To be noted: vs intravenous. Format: in vivo. Here is the method: Blood levels were monitored and the amount of polypeptide absorbed calculated against intravenous administration and expressed as percent bioavailability.
Experiments were performed as in Example 5. The solutions contained 10 mg/kg of cefoxitin and 20 mg/kg of absorption promoters. Blood levels of cefoxitin were monitored and the bioavailability of cefoxitin absorbed was calculated against intravenous administration.

On to `Cn1c(=O)c2[nH]cnc2n(C)c1=O` [Theophylline], for which, in data set [1], the “Absorption of the drug by itself” value is “absorbed well by itself” and the “Percent Bioavailability (mean ± SD) with Control” value is 75 ± 3.3%.

Turning to `CO[C@@]1(NC(=O)Cc2cccs2)C(=O)N2C(C(=O)O)=C(COC(N)=O)CS[C@@H]21` [Sodium cefoxitin], the “Percent Bioavailability (mean ± SD) with Control” value in data set [1] worked out at 2 ± 1.1%. In data set [1] (pH 6), the “Sodium Cefoxitin Percent Bioavailability (mean ± SD), compound None” value is 2 ± 1.1%. In addition, the “Percent Bioavailability (mean ± SD) of cefoxitin, adjuvant None” value in data set [2] (duodenal solution, 10 mg/kg cefoxitin alone) came to 2 ± 1.1%.

As to `Nc1ccn([C@@H]2O[C@H](CO)[C@@H](O)[C@@H]2O)c(=O)n1` [Cytarabine], in data set [1], the “Percent Bioavailability (mean ± SD) with Control” value worked out at 0.5 ± 0.1%.

The term bioavailability denotes the share of a dose that reaches the circulation, judged against a reference dose that is usually intravenous. For `CC(C)[C@@H]1NC(=O)[C@H](CCCCN)NC(=O)[C@@H](Cc2c[nH]c3ccccc23)NC(=O)[C@H](Cc2ccc(O)cc2)NC(=O)[C@H](C)N(C)C(=O)[C@H](Cc2ccccc2)NC1=O` [cyclo(N--Me--Ala--Try--DTrp--Lys--Val--Phe)acetate], the bioavailability in data set [1] (Percent Bioavailability (mean ± SD) with Control) stood at 7 ± 3.5%; in data set [2] (rat, blood, aqueous solution applied to duodenal region, 0.1 mg polypeptide alone, read-out: Percent Bioavailability (mean ± SD), adjuvant None), 1%.
